The record followed here is patent publication US10774080B2, “Pyrimidine compound as JAK kinase inhibitor” (THERAVANCE BIOPHARMA R&D IP, LLC, priority 2017, dated 2020).

For test [1], the system named is IL-12 induced STAT4 phosphorylation in human CD3+ T cells. The test can be described thus: Assay 12: inhibition of IL-12-induced STAT4 phosphorylation in human CD3+ T cells. The test is classed as cell-based. The note with it: T-cell, read-out: pIC50 for inhibition of IL-12 induced STAT4 phosphorylation (converted). The method, then: Assay 12: Inhibition of IL-12-Induced STAT4 Phosphorylation in Human CD3+ T Cells
This cellular potency assay for JAK inhibition was carried out by measuring interleukin-12 (IL-12, R&D Systems) induced STAT4 phosphorylation in human CD3^+ T cells. The CD3 antibody (Becton Dickinson (BD) Biosciences) was conjugated to R-Phycoerythrin (R-PE). The pSTAT4 antibody (pTyr641, BD Biosciences) was conjugated with Alexa Fluor 647.
Human peripheral blood mononuclear cells were cultured at 37° C. in a 5% CO2 humidified incubator in RPMI medium (Life Technologies) supplemented with 10% FBS (Life Technologies), 100 U/mL penicillin, 100 μg/mL streptomycin (Life Technologies), 2 mM GlutaMAX (Life Technologies), plate bound anti CD3 (5 μg/mL, UCHT1, BD Biosciences) and soluble anti-CD28 (1 μg/mL, CD28.2, BD Biosciences) for 3 days. Cells were then resuspended in RPMI medium (Life Technologies) supplemented with 10% FBS (Life Technologies), 100 U/mL penicillin, 100 μg/mL streptomycin (Life Technologies), 2 mM GlutaMAX (Life Technologies) and 10 ng/mL interleukin-2 (IL-2, R&D Systems) for an additional 3 days. […] For dose-response analysis, mean fluorescence intensity values were plotted vs. compound concentrations, and IC50 values were determined from a 4-parameter robust fit model with the Prism software.

Another test deals with T1, Tyk2 (Homo sapiens, UniProt P29597).
T1 construct: GST; purchased Life Technologies
T1 sequence (P29597 whole entry): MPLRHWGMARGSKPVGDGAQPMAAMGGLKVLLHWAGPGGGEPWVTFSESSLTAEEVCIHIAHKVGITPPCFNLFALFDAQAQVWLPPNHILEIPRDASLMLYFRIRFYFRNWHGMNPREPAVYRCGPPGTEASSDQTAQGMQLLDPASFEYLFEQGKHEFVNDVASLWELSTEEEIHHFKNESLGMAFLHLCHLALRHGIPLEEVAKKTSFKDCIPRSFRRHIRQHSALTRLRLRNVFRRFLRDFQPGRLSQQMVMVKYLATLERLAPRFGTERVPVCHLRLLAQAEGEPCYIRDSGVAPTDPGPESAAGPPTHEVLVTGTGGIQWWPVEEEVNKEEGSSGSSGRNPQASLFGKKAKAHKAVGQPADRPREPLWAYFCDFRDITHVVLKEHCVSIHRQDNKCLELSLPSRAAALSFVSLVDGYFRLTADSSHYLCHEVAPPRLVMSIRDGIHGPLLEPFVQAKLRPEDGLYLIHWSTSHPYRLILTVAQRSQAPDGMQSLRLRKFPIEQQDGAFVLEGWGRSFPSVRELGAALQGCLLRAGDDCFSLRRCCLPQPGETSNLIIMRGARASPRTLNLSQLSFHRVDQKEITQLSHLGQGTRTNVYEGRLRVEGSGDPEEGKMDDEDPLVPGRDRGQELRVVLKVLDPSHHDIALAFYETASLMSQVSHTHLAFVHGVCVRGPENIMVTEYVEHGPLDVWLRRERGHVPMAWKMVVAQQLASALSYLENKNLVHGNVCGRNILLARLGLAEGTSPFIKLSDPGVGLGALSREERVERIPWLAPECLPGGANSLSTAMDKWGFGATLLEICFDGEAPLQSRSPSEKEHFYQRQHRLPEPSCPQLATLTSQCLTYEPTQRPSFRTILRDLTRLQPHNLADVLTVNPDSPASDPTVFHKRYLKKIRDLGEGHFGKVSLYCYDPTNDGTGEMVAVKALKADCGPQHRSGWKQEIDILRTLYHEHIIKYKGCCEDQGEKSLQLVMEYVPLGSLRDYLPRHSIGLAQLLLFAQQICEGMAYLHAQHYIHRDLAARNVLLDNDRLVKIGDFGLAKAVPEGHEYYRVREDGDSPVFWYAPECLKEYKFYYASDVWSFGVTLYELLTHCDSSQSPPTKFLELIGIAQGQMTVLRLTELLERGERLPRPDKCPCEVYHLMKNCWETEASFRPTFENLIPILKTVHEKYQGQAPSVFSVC
Nature of the test: Biochemical Tyk2 kinase assay (LanthaScreen). The note with it: read-out: Tyk 2 (pKi) (converted). The method, then:
Assay 1: Biochemical JAK and Tyk2 Kinase Assays A panel of four LanthaScreen JAK biochemical assays (JAK1, 2, 3 and Tyk2) were carried in a common kinase reaction buffer (50 mM HEPES, pH 7.5, 0.01% Brij-35, 10 mM MgCl2, and 1 mM EGTA). Recombinant GST-tagged JAK enzymes and a GFP-tagged STAT1 peptide substrate were obtained from Life Technologies. Serially or discretely diluted compounds were pre-incubated with each of the four JAK enzymes and the substrate in white 384-well microplates (Corning) at ambient temperature for 1 h. ATP was subsequently added to initiate the kinase reactions in 10 μL total volume, with 1% DMSO. […] The plates were allowed to incubate at ambient temperature for 1 h before being read on the EnVision reader (Perkin Elmer). Emission ratio signals (520 nm/495 nm) were recorded and utilized to calculate the percent inhibition values based on DMSO and background controls. For dose-response analysis, percent inhibition data were plotted vs. compound concentrations, and IC50 values were determined from a 4-parameter robust fit model with the Prism software (GraphPad Software). Results were expressed as pIC50 (negative logarithm of IC50) and subsequently converted to pKi (negative logarithm of dissociation constant, Ki) using the Cheng-Prusoff equation.
For orientation: TR-FRET usually uses a lanthanide donor and a delayed reading to cut background.

SMILES strings stand for the structures.

In the case of `CCS(=O)(=O)N1[C@@H]2CCC[C@H]1C[C@H](N(C)c1nc(CO)c(F)c(Nc3cc(C)[nH]n3)n1)C2` [Compound (I), (2-(((1R,3s,5S)-9-(ethylsulfonyl)-9-azabicyclo[3.3.1]nonan-3-yl)(methyl)amino)-5-fluoro-6-((5-methyl-1H-pyrazol-3-yl)amino)pyrimidin-4-yl)methanol], the IC50 in test [1] is 63.1 nM. Moreover, the Ki on Tyk2 is 0.126 nM.
